Measurements as given in patent US20060241099A1 (Pliva-Istrazivacki Institut d.o.o., priority 2003, published 2006).
pIC50, pKi: −log10 of the molar value.

How the values were obtained:
5-HT2A receptor = biological target: T1, 5-HT2A receptor (Homo sapiens, UniProt P28223); experiment: radioligand binding assay for 5-HT2A receptor ([3H]-ketanserin); details: human cortex or recombinant 5-HT2A receptor expressed in CHO-K1 cells; for pIC50: read-out: binding affinity to 5-HT2A serotonin receptor expressed as IC50 value; for pKi: read-out: binding affinity to 5-HT2A serotonin receptor, Ki value
T1 construct: expressed in transfected cells; host or cells: CHO-K1 (or human cortex tissue)
T1 sequence (P28223 whole entry): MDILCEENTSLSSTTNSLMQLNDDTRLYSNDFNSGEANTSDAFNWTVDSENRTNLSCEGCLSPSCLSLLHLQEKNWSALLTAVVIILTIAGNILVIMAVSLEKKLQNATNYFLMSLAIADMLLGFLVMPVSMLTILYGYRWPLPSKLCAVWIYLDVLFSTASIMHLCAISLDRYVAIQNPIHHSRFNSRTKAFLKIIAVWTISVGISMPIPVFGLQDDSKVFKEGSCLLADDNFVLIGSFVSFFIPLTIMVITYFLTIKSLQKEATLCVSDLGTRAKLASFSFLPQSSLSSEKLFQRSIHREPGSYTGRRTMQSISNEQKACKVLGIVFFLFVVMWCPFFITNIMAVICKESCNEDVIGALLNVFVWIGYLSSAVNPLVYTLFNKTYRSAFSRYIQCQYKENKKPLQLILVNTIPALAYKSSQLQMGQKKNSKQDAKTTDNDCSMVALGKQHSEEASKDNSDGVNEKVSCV
Experimental: (§1) The effect of the compounds of the present invention on the neurochemical steady state was determined by in vitro investigations such as a radionuclide-marked radioligand binding assay for 5-HT2A (Bonhaus D. W. Br. J. Pharmacol. 1995, 115:622; Saucier C. J. Neurochem. 1997, 68:1998) and 5-HT2C receptors (Wolf W. A. J. Neurochem. 1997, 69:1449), in vitro binding assay for al receptor (Thomson W. and Donn R. Arthritis Res. 2002, 4: 302-306) and by in vivo investigations in a tail suspension test (Vogel H. G. and Vogel W. H. Drug Discovery and Evaluation Pharmacological Assays, Springer 1997, 304), in amphethamine-induced hyperlocomotion in mice (Millan M. J. et al, 1998 J Pharmacol. Exp. Ther. 287: 167-186) in a forced swim test in mice (Porsolt R. D. et al. Arch. Int. Pharmacodyn. 1977, 229:327-336), in meta-chlorophenyl piperazine (m-CPP) test on rats (Drug Dev. Res. 1989, 18:119-144) and in apomorphine, tryptamine, norepinephrine (ATN) test in rats (Arch. Int. Pharmacodyn. 1977, 227:238-253).
(§2) A small concentration of a radioligand having a great affinity for binding to a receptor was incubated with a tissue sample enriched with a certain receptor (1-5 mg of tissue) in a buffered medium (0.2-5 μL). Recombinant human HT2A and HT2C receptors were expressed in CHO-K1 or COS-7 cells and were also used for competitive binding. During incubation the radioligand bound to the receptor. When a binding balance was achieved, the receptors to which the radioligand was bound were separated from those to which said ligand was not bound, and the radioactivity of the receptor/radioligand complex was measured. The interaction of the tested compounds with receptors was tested in competitive binding experiments. Various concentrations of tested compounds were added to the incubation mixture containing a prepared tissue enriched with corresponding receptors and the radioligand. The radioligand binding was inhibited by the test compounds proportionally to the affinity of a certain compound for the receptor and to the concentration of the compound.
The radioligand used for the determination of binding to 5-HT2A receptor was [^3H]-ketanserin and the tissue used was human cortex or recombinant 5-HT2A receptor expressed in CHO-K1 cells.

5-HT2C receptor = biological target: T2, 5-HT2C receptor (Homo sapiens, UniProt P28335); experiment: radioligand binding assay for 5-HT2C receptor ([3H]-mesulergine); details: choroid plexus or recombinant 5-HT2C receptor expressed in CHO-K1 cells; for pIC50: read-out: binding affinity to 5-HT2C serotonin receptor expressed as IC50 value; for pKi: read-out: binding affinity to 5-HT2C serotonin receptor, Ki value
T2 construct: expressed in transfected cells; host or cells: CHO-K1 (or choroid plexus tissue)
T2 sequence (P28335 33-458): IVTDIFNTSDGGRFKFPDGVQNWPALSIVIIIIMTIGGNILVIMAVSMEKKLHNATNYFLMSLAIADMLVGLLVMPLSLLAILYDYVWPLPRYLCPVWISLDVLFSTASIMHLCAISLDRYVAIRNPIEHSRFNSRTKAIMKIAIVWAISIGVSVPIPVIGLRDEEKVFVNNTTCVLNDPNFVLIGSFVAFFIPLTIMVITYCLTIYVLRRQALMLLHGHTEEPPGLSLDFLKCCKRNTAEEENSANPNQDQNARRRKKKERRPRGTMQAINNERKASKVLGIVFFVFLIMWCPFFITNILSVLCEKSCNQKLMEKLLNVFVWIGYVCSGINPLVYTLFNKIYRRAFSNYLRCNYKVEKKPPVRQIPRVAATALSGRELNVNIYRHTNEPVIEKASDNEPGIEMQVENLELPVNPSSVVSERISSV
Experimental: as §1, §2
The radioligand used for the determination of binding to 5-HT2C receptor was [^3H]-mesulergine and the tissue used was choroid plexus or recombinant 5-HT2C receptor expressed in CHO-K1 cells.

σ1 receptor = biological target: T3, σ1 receptor (Homo sapiens, UniProt Q99720); experiment: in vitro binding affinity to σ1 receptor, Jurkat cell membranes, [3H]haloperidol; details: for pIC50: read-out: binding affinity to σ1 receptor expressed as IC50 value
T3 construct: endogenous in cells; host or cells: Jurkat cell membranes
T3 sequence (Q99720 whole entry): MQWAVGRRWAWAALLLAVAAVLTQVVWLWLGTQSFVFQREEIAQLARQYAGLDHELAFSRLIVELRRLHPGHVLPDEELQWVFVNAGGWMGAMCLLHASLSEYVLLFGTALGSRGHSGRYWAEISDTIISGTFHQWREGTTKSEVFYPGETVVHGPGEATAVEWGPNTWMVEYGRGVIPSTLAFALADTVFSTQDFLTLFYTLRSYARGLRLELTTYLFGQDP
Experimental: as §1
Jurkat cell were grown in medium, RPMI supplemented with 10% fetal bovine serum, 100 U/ml penicillin and 100 μg/ml streptomycin, collected and their suspension homogenized. After centrifugation, the membrane fraction was separated, resuspended in phosphate buffer (pH=7.5) and stored in small aliquots in liquid nitrogen until use. Binding of different radiolabeled ligands to Jurkat cell membranes was measured as described previously (Ramamoorthy et al., 1995). To characterize the σ binding sites in the Jurkat cell line, [^3H]haloperidol was first used as the ligand. Haloperidol is a high affinity ligand to both type 1 and type 2 σ-receptors. The binding assays were done using Jurkat cell membranes in the presence of [^3H]haloperidol ([…]) alone to determine the total binding, and in the presence of [^3H]haloperidol (10 nM) and unlabeled haloperidol (10 μM) to determine the nonspecific binding. Membranes were incubated with ligands in phosphate buffer for 3 hours at room temperature. After the filter had been washed, radioactivity associated with the filter was determined by liquid scintillation spectrometry.

mice = experiment: amphetamine-induced hyperlocomotion in mice; type: in vivo; details: male Swiss OFA mice, per os in saline, test doses of 1 mg/kg and 0,1 mg/kg, dexamphetamine sulphate 2 mg/kg i.p.
Experimental: Male Swiss OFA mice of a weight 30-35 g were treated with either vehicle (saline) or test compounds 30 minutes prior to hyperlocomotion induction. Dexamphetamine sulphate was administered intraperitoneally at 2 mg/kg. Thirty minutes later, animals were placed in a wooden box 80×80 cm^2 in a room with low light intensity (100 lux) for locomotor activity recording. Locomotor activity was determined during a 30 min period using a video image analyzer. Total duration of movement, occurence of movement and total distance travelled were measured. Haloperidol was tested at the dose of 0,25 mg/kg (prepared in 0.5% methylcellulose) and served as reference substance.
Compounds were considered as active if in a dose of 10 mg/kg reduced amphetamine-induced hyperlocomotion in experimental animals for 30% and more when compared to vehicle treated control group.

`NCCCOCc1scc2c1-c1cc(Cl)ccc1Oc1ccccc1-2` was tested. Which pIC50 (5-HT2A receptor) did it give?
Its pIC50 is greater than 6.70.

And the pKi (5-HT2A receptor)?
Its pKi is greater than 7.00.

And the pIC50 (5-HT2C receptor)?
The pIC50 was greater than 6.70.

What about the pKi (5-HT2C receptor) of the same molecule?
The pKi was greater than 7.00.

With `NCCCOCc1scc2c1-c1ccccc1Oc1ccccc1-2` [3-(8-oxa-2-thia-dibenzo[e,h]azulen-1-ylmethoxy)-propylamine] as the molecule, how does the pIC50 (5-HT2A receptor) read?
The pIC50 was greater than 6.70.

And the pKi (5-HT2A receptor)?
Its pKi is greater than 7.00.

What about the pIC50 (5-HT2C receptor) of the same molecule?
Its pIC50 is greater than 6.70.

What about the pKi (5-HT2C receptor) of the same molecule?
Its pKi is greater than 7.00.

With `CN(C)CCOCc1scc2c1-c1ccccc1Sc1ccccc1-2` [[2-(2,8-dithia-dibenzo[e,h]azulen-1-ylmethoxy)-ethyl]-dimethyl-amine] as the molecule, how does the pIC50 (5-HT2A receptor) read?
The pIC50 was greater than 6.70.

What about the pKi (5-HT2A receptor) of the same molecule?
Its pKi is greater than 7.00.

And the pIC50 (5-HT2C receptor)?
Its pIC50 is greater than 6.70.

What about the pKi (5-HT2C receptor) of the same molecule?
The pKi was greater than 7.00.

What about the pKi (σ1 receptor) of the same molecule?
Its pKi is greater than 7.00.

What about the pIC50 (σ1 receptor) of the same molecule?
Its pIC50 is greater than 6.70.

Which results are given for `CN(C)CCOCc1scc2c1-c1ccccc1Oc1ccc(Cl)cc1-2` [[2-(5-chloro-8-oxa-2-thia-dibenzo[e,h]azulen-1-ylmethoxy)-ethyl]-dimethyl-amine]?
pIC50 (5-HT2A receptor): > 6.70; pKi (5-HT2A receptor): > 7.00; pIC50 (5-HT2C receptor): > 6.70; pKi (5-HT2C receptor): > 7.00; pKi (σ1 receptor): > 7.00; pIC50 (σ1 receptor): > 6.70

How did the pIC50 (5-HT2A receptor) turn out when `CN(C)CCCOCc1scc2c1-c1ccccc1Sc1ccccc1-2` [[3-(2,8-dithia-dibenzo[e,h]azulen-1-ylmethoxy)-propyl]-dimethyl-amine] was run?
The pIC50 was greater than 6.70.

And the pKi (5-HT2A receptor)?
Its pKi is greater than 7.00.

What about the pIC50 (5-HT2C receptor) of the same molecule?
Its pIC50 is greater than 6.70.

And the pKi (5-HT2C receptor)?
Its pKi is greater than 7.00.

What about the pKi (σ1 receptor) of the same molecule?
Its pKi is greater than 7.00.

What about the pIC50 (σ1 receptor) of the same molecule?
The pIC50 was greater than 6.70.

How did the pIC50 (5-HT2A receptor) turn out when `CN(C)CCOCc1scc2c1-c1ccccc1Oc1ccccc1-2` [dimethyl-[2-(8-oxa-2-thia-dibenzo[e,h]azulen-1-ylmethoxy)-ethyl]-amine] was run?
The pIC50 was greater than 6.70.

What about the pKi (5-HT2A receptor) of the same molecule?
The pKi was greater than 7.00.

And the pIC50 (5-HT2C receptor)?
The pIC50 was greater than 6.70.

What about the pKi (5-HT2C receptor) of the same molecule?
The pKi was greater than 7.00.

And the pKi (σ1 receptor)?
Its pKi is greater than 7.00.

What about the pIC50 (σ1 receptor) of the same molecule?
The pIC50 was greater than 6.70.

Which results are given for `CN(C)CCCOCc1scc2c1-c1ccccc1Oc1ccccc1-2` [dimethyl-[3-(8-oxa-2-thia-dibenzo[e,h]azulen-1-ylmethoxy)-propyl]-amine]?
pIC50 (5-HT2A receptor): > 6.70; pKi (5-HT2A receptor): > 7.00; pIC50 (5-HT2C receptor): > 6.70; pKi (5-HT2C receptor): > 7.00

How did the “inhibition of amphetamine-induced hyperlocomotion” value (mice) turn out when “[2-(2,8-dithia-dibenzo[e,h]azulen-1-ylmethoxy)-ethyl]-dimethyl-ammonium citrate” was run?
The value was 40-60%.
